These results are taken from publication PMC6253998, “Ring-substituted 4-Hydroxy-1H-quinolin-2-ones: Preparation and Biological Activity” (Molecules, 2009).

Usually IC50 stands for the point on the concentration scale where inhibition reaches its midpoint.

A short description of data set [1]: Lipophilicity HPLC determination (capacity factor k / log k). It counts as physicochemical. The conditions noted are these: RP-HPLC, C18 column, MeOH 55.0% / H2O 45.0%, isocratic. As to the method:
Hydrophobicities (log P/Clog P values) of the compounds 1-12 were calculated using two commercially available programs and also measured by means of the reversed phase high performance liquid chromatography (RP-HPLC) method for lipophilicity measurement. The procedure was performed under isocratic conditions with methanol as an organic modifier in the mobile phase using an end-capped non-polar C18 stationary RP column. The capacity factors k were determined and subsequent log k values were calculated.
The HPLC separation module Waters Alliance 2695 XE and Waters Photodiode Array Detector 2996 (Waters Corp., Milford, MA, U.S.A.) were used. A Symmetry® C18 5 μm, 4.6 × 250 mm, Part No. WAT054275, (Waters Corp., Milford, MA, U.S.A.) chromatographic column was used. The HPLC separation process was monitored by Millennium32® Chromatography Manager Software, Waters 2004 (Waters Corp., Milford, MA, U.S.A.). The mixture of MeOH p.a. (55.0%) and H2O-HPLC – Mili-Q Grade (45.0%) was used as a mobile phase. The total flow of the column was 0.9 mL/min, injection 30 μL, column temperature 30 °C and sample temperature 10 °C. The detection wavelength 210 nm was chosen. The KI methanolic solution was used for the dead time (TD) determination. Retention times (tR) were measured in minutes. The capacity factors k were calculated using the Millennium32® Chromatography Manager Software according to formula k = (tR - tD) / tD, where tR is the retention time of the solute, whereas tD denotes the dead time obtained via an unretained analyte. Log k, calculated from the capacity factor k, is used as the lipophilicity index converted to log P scale.

The subject of data set [2] is spinach chloroplasts. Description: Inhibition of oxygen evolution rate (OER) / photosynthetic electron transport in spinach chloroplasts. It counts as biochemical, Spinacia oleracea L. The conditions noted are these: DCPIP photoreduction, pH 7.2. How it is done: Chloroplasts were prepared from spinach (Spinacia oleracea L.) according to Masarovicova and Kralova. The inhibition of photosynthetic electron transport (PET) in spinach chloroplasts was determined spectrophotometrically (Genesys 6, Thermo Scientific, U.S.A.) using an artificial electron acceptor 2,6-dichlorophenol-indophenol (DCPIP) according to Kralova et al. and the rate of photosynthetic electron transport was monitored as a photoreduction of DCPIP. The measurements were carried out in phosphate buffer (0.02 mol/L, pH 7.2) containing sucrose (0.4 mol/L), MgCl2 (0.005 mol/L) and NaCl (0.015 mol/L). The chlorophyll content was 30 mg/L in these experiments and the samples were irradiated (~100 W/m^2) from 10 cm distance with a halogen lamp (250 W) using a 4 cm water filter to prevent warming of the samples (suspension temperature 22 °C). The studied compounds were dissolved in DMSO due to their limited water solubility. […] The inhibitory efficiency of the studied compounds was expressed by IC50 values, i.e. by molar concentration of the compounds causing 50% decrease in the oxygen evolution rate relative to the untreated control.

Another data set concerns Absidia corymbifera 272. Description: In vitro antifungal broth microdilution test. The data set is classed as cell-based. The conditions noted are these: RPMI 1640, pH 7.0, 35 °C; for MIC: Lichtheimia corymbifera, 272, read-out: MIC/IC80 AC. As to the method:
(§1) Fluconazole (FLU) was used as the standard of a clinically used antimycotic drug. The procedure was performed with twofold dilution of the compounds in […]., Prague, Czech Republic) buffered to pH 7.0 with 0.165 mol of 3-morpholino-propane-1-sulfonic acid (MOPS, Sigma, Germany). […] Drug-free controls were included. The MIC was defined as an 80% or greater (IC80) reduction of growth in comparison with the control.

In data set [3] the test system is Aspergillus fumigatus 231. Description: In vitro antifungal broth microdilution test. It counts as cell-based. The conditions noted are these: RPMI 1640, pH 7.0, 35 °C; for MIC: Aspergillus fumigatus, 231, read-out: MIC/IC80 AF. As to the method:
as §1
Background: Dilution methods test growth across graded concentrations, often in twofold steps.

Data set [4] concerns Candida albicans ATCC 44859. Description: In vitro antifungal broth microdilution test. The data set is classed as cell-based. The conditions noted are these: RPMI 1640, pH 7.0, 35 °C; for MIC: Candida albicans, ATCC44859, read-out: MIC/IC80 CA. How it is done:
as §1

The next data set relates to Candida glabrata 20/I. Description: In vitro antifungal broth microdilution test. The conditions noted are these: for MIC/IC80 CG / MIC: RPMI 1640, pH 7.0, 35 °C; for MIC: Nakaseomyces glabratus, 20/I, read-out: MIC/IC80 CG. It counts as cell-based. How it is done: as §1
In the next data set the test system is Candida krusei ATCC 6258. Description: In vitro antifungal broth microdilution test. The data set is classed as cell-based. The conditions noted are these: RPMI 1640, pH 7.0, 35 °C; for MIC: Pichia kudriavzevii, ATCC6258, read-out: MIC/IC80 CK. How it is done:
as §1

Another data set concerns Candida tropicalis 156. Description: In vitro antifungal broth microdilution test. The data set is classed as cell-based. The conditions noted are these: RPMI 1640, pH 7.0, 35 °C; for MIC: Candida tropicalis, 156, read-out: MIC/IC80 CT. How it is done: as §1
The subject of data set [5] is Trichophyton mentagrophytes 445. Description: In vitro antifungal broth microdilution test. The data set is classed as cell-based. The conditions noted are these: for MIC/IC80 TM / MIC: RPMI 1640, pH 7.0, 35 °C; for MIC: Trichophyton mentagrophytes, 445, read-out: MIC/IC80 TM. How it is done:
as §1

In data set [6] the test system is Trichosporon beigelii 1188. Description: In vitro antifungal broth microdilution test. The conditions noted are these: RPMI 1640, pH 7.0, 35 °C; for MIC: Trichosporon beigelii, 1188, read-out: MIC/IC80 TB. The data set is classed as cell-based. How it is done:
(§2) The broth microdilution test was used for the assessment of in vitro antifungal activity of the synthesized compounds against Candida albicans ATCC 44859 (CA), Candida tropicalis 156 (CT), Candida krusei ATCC 6258 (CK), Candida glabrata 20/I (CG), Trichosporon beigelii 1188 (TB), Aspergillus fumigatus 231 (AF), Absidia corymbifera 272 (AC), and Trichophyton mentagrophytes 445 (TM). Fluconazole (FLU) was used as the standard of a clinically used antimycotic drug. The procedure was performed with twofold dilution of the compounds in RPMI 1640 (Sevapharma a.s., Prague, Czech Republic) buffered to pH 7.0 with 0.165 mol of 3-morpholino-propane-1-sulfonic acid (MOPS, Sigma, Germany). The final concentrations of the compounds ranged from 500 to 0.975 μmol/l. Drug–free controls were included. The MIC was defined as an 80% or greater (IC80) reduction of growth in comparison with the control. The values of MICs were determined after 24 and 48 h of static incubation at 35 °C. For T. mentagrophytes, the final MICs were determined after 72 and 120 h of incubation.

The test system of the next data set is eight fungal strains. Description: In vitro antifungal screening, overall verdict. It counts as cell-based. The conditions noted are these: especially against Candida albicans ATCC 44859. As to the method:
as §2

For data set [7], the system named is spinach chloroplasts. Also noted: method as in earlier work. The conditions noted are these: standard, read-out: OER inhibition IC50; cited from earlier work.

In brackets after ≈: the same amount, converted by molar mass. Several values for one entry are separate records, joined by “and”; a condition that tells them apart may be missing. Equal entries are not always repeated. Where two headings read alike, the source gives them in different places.

Compound “3-(4-Carboxy-3-hydroxyphenylcarbamoyl)-4-hydroxy-2-oxo-1,2-dihydroquinoline-6-carboxylic acid [Compound 12]” had a log k in [1] of 0.0093. This compound also gave an IC50 in the data set with spinach chloroplasts [2] of 321 µM. Moreover, the “MIC/IC80 AC” value is 500 µM against Absidia corymbifera 272 (24h) and >500 µM in the data set on Absidia corymbifera 272 (48h). Besides, the “MIC/IC80 AF” value in data set [3] (24h) is 500 µM; in data set [3] (48h) it was >500 µM. Further, the “MIC/IC80 CA” value came out at 62.50 µM in data set [4] (24h) and 125 µM in data set [4] (48h). The “MIC/IC80 CG” value against Candida glabrata 20/I (24h) is 125 µM; with Candida glabrata 20/I (48h), 250 µM. The “MIC/IC80 CK” value with Candida krusei ATCC 6258 (24h) and with Candida krusei ATCC 6258 (48h) was >500 µM each time. In addition, the “MIC/IC80 CT” value against Candida tropicalis 156 (24h) is 500 µM; against Candida tropicalis 156 (48h), >500 µM. The “MIC/IC80 TM” value in data set [5] (72h) was 500 µM; in [5] (120h) it was >500 µM. The “MIC/IC80 TB” value was 125 µM in data set [6] (24h) and >500 µM in [6] (48h). Moreover, the “in vitro antifungal activity (in words)” value in the data set on eight fungal strains is listed as “only a moderate activity”.
For the compound `O=C(O)c1ccc2[nH]c(=O)c(/N=N/c3cc(Cl)c([N+](=O)[O-])cc3Cl)c(O)c2c1` [Compound 8, (E)-3-[(2,5-Dichloro-4-nitrophenyl)diazenyl]-4-hydroxy-2-oxo-1,2-dihydroquinoline-6-carboxylic acid], the log k in data set [1] is 0.6394. In the data set on spinach chloroplasts [2], this compound showed an IC50 of 126 µM. In addition, the MIC with Absidia corymbifera 272 (24h) came out at 62.5 µM (≈ 26.4 µg/mL); in the data set on Absidia corymbifera 272 (48h), 250 µM (≈ 106 µg/mL); in data set [3] (24h), 125 µM (≈ 52.9 µg/mL); in data set [3] (48h), 250 µM (≈ 106 µg/mL); in [4] (24h) it was 31.2 µM (≈ 13.2 µg/mL); in data set [4] (48h), 125 µM (≈ 52.9 µg/mL). Moreover, the MIC in the data set on Candida glabrata 20/I (24h) is 250 µM (≈ 106 µg/mL); with Candida glabrata 20/I (48h) it was > 250 µM; in the data set with Candida krusei ATCC 6258 (24h) it was 250 µM (≈ 106 µg/mL); with Candida krusei ATCC 6258 (48h), 250 µM (≈ 106 µg/mL); with Candida tropicalis 156 (24h) it was 250 µM (≈ 106 µg/mL); in the data set with Candida tropicalis 156 (48h), > 250 µM. Besides, the MIC in [5] (72h) is 62.5 µM (≈ 26.4 µg/mL); in [5] (120h), 125 µM (≈ 52.9 µg/mL); in data set [6] (24h), 250 µM (≈ 106 µg/mL); in data set [6] (48h), > 250 µM. For the same compound, the “antifungal activity against Trichophyton mentagrophytes 445 (in words)” value in data set [5] is given as “medium activity”. Further, in the data set with eight fungal strains, the “in vitro antifungal activity (in words)” value is reported as “only a moderate activity”.
As to `O=C(O)c1cc2c(O)cc(=O)[nH]c2cc1O` [Compound 4, 4,7-Dihydroxy-2-oxo-1,2-dihydroquinoline-6-carboxylic acid], the log k in data set [1] turned out to be 0.0080. This compound came in with an IC50 in the data set on spinach chloroplasts [2] of 538 µM. In addition, the MIC in the data set on Absidia corymbifera 272 (24h) was > 500 µM; in the data set on Absidia corymbifera 272 (48h), > 500 µM; in data set [3] (24h), 500 µM (≈ 111 µg/mL); in [3] (48h), > 500 µM; in data set [4] (24h) it was 15.6 µM (≈ 3.45 µg/mL); in data set [4] (48h), 62.5 µM (≈ 13.8 µg/mL). The MIC with Candida glabrata 20/I (24h) was 62.5 µM (≈ 13.8 µg/mL); with Candida glabrata 20/I (48h), 250 µM (≈ 55.3 µg/mL); in the data set on Candida krusei ATCC 6258 (24h) it was > 500 µM; with Candida krusei ATCC 6258 (48h) it was > 500 µM; in the data set on Candida tropicalis 156 (24h), 500 µM (≈ 111 µg/mL); with Candida tropicalis 156 (48h), > 500 µM. Also, the MIC in data set [5] (72h) was > 500 µM; in data set [5] (120h), > 500 µM; in data set [6] (24h), 62.5 µM (≈ 13.8 µg/mL); in data set [6] (48h) it was > 500 µM. Also, the “antifungal activity against Candida glabrata 20/I (in words)” value in the data set on Candida glabrata 20/I is recorded as “medium activity”. In the data set on eight fungal strains, the “in vitro antifungal activity (in words)” value was “only a moderate activity”.
As for `CN(C)C(=O)Nc1ccc(Cl)c(Cl)c1` [DCMU, 3-(3,4-dichlorophenyl)-1,1-dimethylurea], the IC50 in the data set on spinach chloroplasts [7] was ~1.9 µM and 1.9 µM.
